# Data from ChEMBL document CHEMBL1649074, “Aurora kinase inhibitors based on the imidazo[1,2-a]pyrazine core: fluorine and deuterium incorporation improve oral absorption and exposure” (J Med Chem, 2011).
# Columns and labels:
# [1] = target: T1, Testis-specific serine/threonine-protein kinase 2 (Homo sapiens, UniProt Q96PF2); experiment: Inhibition of TSSK2
# T1 sequence (Q96PF2 whole entry): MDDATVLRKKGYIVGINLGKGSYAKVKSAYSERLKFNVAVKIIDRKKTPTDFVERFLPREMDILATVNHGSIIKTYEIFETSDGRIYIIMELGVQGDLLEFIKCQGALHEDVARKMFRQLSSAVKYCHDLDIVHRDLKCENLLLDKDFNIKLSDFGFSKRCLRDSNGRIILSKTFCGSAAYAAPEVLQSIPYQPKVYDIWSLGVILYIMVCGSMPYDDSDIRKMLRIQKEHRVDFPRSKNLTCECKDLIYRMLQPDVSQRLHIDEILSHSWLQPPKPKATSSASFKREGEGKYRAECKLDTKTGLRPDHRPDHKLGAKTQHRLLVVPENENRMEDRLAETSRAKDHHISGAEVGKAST
# [2] = target: Rho-associated protein kinase 2 (Homo sapiens, UniProt O75116); experiment: Inhibition of ROCK2
# Chain of Rho-associated protein kinase 2 (O75116 whole entry): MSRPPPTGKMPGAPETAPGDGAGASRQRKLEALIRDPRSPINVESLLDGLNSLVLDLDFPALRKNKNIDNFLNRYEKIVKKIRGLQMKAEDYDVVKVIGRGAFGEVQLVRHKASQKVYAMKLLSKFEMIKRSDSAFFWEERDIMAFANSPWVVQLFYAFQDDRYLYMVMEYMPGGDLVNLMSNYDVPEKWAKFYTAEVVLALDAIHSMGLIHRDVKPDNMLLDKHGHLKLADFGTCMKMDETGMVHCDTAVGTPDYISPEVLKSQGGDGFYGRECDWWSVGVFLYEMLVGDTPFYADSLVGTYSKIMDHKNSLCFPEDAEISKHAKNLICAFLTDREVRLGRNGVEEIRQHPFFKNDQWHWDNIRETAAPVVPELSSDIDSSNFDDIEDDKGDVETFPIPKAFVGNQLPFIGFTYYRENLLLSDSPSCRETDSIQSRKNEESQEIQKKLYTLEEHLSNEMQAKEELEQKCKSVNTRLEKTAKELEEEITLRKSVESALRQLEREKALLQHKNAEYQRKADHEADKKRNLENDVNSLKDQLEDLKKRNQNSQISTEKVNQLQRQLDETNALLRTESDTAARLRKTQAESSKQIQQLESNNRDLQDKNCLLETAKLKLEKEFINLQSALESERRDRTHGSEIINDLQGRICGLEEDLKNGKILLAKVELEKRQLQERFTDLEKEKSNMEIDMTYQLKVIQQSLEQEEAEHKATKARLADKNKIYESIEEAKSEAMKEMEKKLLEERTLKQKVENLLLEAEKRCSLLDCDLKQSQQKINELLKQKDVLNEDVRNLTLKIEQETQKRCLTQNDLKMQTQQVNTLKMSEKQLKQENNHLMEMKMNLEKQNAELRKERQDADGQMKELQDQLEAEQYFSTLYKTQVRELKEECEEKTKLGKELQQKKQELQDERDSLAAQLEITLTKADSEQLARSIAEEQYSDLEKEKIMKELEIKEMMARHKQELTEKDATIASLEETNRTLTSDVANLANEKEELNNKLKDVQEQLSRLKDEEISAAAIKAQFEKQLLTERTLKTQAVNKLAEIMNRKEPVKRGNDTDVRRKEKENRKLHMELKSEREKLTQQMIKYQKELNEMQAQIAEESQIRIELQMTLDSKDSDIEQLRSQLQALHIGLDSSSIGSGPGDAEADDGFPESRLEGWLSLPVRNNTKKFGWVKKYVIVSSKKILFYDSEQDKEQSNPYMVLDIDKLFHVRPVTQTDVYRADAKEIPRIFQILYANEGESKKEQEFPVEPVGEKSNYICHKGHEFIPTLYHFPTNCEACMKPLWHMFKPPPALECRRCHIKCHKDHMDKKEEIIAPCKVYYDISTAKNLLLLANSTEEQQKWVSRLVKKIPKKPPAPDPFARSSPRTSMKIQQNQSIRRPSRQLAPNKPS
# [3] = target: Protein kinase C alpha type (Homo sapiens, UniProt P17252); experiment: Inhibition of PKCA
# [4] = target: Hepatocyte growth factor receptor (Homo sapiens, UniProt P08581); experiment: Inhibition of MET
# [5] = target: T2, Inhibitor of nuclear factor kappa-B kinase subunit beta (Homo sapiens, UniProt O14920); experiment: Inhibition of IKK-beta
# T2 sequence (O14920 whole entry): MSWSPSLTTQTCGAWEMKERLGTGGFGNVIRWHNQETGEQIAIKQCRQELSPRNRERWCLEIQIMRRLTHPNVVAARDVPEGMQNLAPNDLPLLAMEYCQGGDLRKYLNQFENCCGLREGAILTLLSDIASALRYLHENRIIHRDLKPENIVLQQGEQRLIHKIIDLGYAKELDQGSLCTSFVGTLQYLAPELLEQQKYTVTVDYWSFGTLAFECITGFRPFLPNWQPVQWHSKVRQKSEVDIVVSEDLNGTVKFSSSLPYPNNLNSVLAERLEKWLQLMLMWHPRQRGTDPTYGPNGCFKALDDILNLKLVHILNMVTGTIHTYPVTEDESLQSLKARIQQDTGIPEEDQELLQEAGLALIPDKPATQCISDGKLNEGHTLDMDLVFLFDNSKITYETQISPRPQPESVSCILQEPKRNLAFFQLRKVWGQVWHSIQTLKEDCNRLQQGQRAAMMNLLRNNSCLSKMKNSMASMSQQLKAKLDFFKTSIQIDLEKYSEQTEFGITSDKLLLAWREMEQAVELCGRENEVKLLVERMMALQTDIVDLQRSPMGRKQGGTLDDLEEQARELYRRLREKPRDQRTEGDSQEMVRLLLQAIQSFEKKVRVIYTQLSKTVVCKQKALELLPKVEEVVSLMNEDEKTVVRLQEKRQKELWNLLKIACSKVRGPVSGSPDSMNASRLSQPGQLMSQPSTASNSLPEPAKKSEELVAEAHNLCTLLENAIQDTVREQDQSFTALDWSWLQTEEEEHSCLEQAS
# [6] = target: Insulin-like growth factor 1 receptor (Homo sapiens, UniProt P08069); experiment: Inhibition of IGF1R
# Chain of Insulin-like growth factor 1 receptor (P08069 31-736 limits assumed): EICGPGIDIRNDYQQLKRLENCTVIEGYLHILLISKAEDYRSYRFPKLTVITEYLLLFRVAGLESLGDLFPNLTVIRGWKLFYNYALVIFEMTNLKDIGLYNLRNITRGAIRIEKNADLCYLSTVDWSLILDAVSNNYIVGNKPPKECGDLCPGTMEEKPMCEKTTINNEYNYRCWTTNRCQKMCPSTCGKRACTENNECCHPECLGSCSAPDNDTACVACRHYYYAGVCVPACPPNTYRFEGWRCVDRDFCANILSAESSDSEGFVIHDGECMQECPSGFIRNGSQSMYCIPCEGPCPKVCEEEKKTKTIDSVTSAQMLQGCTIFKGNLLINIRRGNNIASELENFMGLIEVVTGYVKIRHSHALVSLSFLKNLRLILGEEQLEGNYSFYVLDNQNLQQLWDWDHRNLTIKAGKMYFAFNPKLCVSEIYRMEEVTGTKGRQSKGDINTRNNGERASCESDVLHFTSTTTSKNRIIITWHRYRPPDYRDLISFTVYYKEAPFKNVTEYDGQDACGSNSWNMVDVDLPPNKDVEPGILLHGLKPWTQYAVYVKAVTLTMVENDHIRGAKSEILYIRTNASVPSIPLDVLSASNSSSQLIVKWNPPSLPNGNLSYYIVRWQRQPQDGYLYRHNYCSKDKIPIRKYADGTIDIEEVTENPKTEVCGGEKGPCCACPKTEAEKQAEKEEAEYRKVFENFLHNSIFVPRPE
# Chain of Insulin-like growth factor 1 receptor (P08069 741-1367 limits assumed): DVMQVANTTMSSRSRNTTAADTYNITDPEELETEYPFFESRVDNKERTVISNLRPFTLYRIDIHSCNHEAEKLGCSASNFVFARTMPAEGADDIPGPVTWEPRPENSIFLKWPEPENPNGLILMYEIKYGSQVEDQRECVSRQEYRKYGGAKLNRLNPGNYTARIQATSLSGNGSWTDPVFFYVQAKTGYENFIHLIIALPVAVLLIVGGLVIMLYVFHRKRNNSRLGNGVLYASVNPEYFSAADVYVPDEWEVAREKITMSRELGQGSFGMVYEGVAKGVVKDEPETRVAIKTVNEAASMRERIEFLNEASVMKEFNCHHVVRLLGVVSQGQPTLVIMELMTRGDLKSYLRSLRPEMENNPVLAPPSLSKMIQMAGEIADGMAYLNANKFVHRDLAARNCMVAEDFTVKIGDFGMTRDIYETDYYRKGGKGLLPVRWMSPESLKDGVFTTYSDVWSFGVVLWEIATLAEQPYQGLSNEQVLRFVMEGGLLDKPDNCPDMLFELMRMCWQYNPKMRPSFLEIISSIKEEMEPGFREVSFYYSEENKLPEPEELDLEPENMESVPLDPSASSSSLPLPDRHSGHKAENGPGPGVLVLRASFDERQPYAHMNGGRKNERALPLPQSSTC
# [7] = target: Mitogen-activated protein kinase 1 (Homo sapiens, UniProt P28482); experiment: Inhibition of ERK2
# Chain of Mitogen-activated protein kinase 1 (P28482 whole entry, canonical isoform): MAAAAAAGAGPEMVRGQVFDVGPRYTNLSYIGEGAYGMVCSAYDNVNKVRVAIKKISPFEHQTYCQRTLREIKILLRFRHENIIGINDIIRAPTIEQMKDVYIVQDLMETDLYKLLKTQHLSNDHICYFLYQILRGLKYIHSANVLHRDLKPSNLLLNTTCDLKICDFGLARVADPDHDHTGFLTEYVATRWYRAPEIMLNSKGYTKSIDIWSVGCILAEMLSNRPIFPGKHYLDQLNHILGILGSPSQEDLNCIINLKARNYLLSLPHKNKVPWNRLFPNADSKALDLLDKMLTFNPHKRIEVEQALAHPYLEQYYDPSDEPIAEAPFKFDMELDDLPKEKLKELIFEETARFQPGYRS
# [8] = target: Casein kinase I isoform delta (Homo sapiens, UniProt P48730); experiment: Inhibition of CSNK1D
# Chain of Casein kinase I isoform delta (P48730 whole entry, canonical isoform): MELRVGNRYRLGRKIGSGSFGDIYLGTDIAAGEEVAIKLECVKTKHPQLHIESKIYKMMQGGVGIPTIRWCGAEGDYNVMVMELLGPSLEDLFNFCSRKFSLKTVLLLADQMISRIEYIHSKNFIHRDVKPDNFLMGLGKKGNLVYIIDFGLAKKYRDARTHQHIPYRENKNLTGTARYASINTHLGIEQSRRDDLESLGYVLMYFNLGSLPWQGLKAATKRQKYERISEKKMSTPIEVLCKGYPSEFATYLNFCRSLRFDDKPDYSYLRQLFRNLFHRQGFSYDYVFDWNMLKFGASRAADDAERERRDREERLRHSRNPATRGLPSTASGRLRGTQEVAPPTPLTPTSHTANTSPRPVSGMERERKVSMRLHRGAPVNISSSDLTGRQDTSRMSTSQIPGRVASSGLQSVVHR
# [9] = target: Cyclin-dependent kinase 2 (Homo sapiens, UniProt P24941); experiment: Inhibition of CDK2
# [10] = target: RAC-alpha serine/threonine-protein kinase (Homo sapiens, UniProt P31749); experiment: Inhibition of AKT1
# Chain of RAC-alpha serine/threonine-protein kinase (P31749 whole entry): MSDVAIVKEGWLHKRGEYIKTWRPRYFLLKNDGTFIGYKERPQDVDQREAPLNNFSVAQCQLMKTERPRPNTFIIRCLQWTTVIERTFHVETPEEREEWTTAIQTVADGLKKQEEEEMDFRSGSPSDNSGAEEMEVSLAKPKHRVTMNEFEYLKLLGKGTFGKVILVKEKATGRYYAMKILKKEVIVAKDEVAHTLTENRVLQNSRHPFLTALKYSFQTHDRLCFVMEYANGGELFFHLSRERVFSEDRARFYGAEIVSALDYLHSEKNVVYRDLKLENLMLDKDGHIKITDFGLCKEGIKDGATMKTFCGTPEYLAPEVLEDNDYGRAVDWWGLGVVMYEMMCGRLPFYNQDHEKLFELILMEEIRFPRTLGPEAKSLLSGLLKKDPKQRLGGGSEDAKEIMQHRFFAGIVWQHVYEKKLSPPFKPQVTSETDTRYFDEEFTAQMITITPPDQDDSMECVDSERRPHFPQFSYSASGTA
# [11] = target: Vascular endothelial growth factor receptor 2 (Homo sapiens, UniProt P35968); experiment: Inhibition of KDR
# [12] = target: T3, Receptor-type tyrosine-protein kinase FLT3 (Homo sapiens, UniProt P36888); experiment: Inhibition of FLT3
# T3 sequence (P36888 whole entry): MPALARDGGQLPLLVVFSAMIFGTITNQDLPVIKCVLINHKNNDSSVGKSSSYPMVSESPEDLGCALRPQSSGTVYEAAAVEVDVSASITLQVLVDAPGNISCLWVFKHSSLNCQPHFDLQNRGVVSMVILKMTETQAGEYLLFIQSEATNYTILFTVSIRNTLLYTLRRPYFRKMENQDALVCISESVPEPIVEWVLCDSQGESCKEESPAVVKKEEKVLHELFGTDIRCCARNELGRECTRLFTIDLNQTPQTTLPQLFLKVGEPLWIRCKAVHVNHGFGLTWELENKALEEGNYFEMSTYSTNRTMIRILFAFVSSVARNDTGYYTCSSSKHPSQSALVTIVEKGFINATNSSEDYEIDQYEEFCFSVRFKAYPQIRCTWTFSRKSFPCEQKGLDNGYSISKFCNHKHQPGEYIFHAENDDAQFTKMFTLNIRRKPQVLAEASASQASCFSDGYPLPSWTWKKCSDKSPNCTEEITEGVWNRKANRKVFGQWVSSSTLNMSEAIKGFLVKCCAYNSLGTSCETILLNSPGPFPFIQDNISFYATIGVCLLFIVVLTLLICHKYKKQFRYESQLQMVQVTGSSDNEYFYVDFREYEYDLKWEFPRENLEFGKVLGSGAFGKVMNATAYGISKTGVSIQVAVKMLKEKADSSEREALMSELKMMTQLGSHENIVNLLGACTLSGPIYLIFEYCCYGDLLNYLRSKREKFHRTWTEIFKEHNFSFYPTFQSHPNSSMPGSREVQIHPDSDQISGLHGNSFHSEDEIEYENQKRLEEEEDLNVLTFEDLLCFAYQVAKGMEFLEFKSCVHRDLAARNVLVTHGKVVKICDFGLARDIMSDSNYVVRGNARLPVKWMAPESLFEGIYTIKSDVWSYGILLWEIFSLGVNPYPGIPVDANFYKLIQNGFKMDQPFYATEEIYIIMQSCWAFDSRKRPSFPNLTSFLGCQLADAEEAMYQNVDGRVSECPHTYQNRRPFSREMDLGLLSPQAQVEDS
# Aurora kinase B = Aurora kinase B (Homo sapiens, UniProt Q96GD4); experiment: Inhibition of Aurora B in human HCT116 cells assessed as inhibition of histone H3 phosphorylation by immunofluorescence assay; type: cell-based, HCT-116
# Chain of Aurora kinase B (Q96GD4 whole entry): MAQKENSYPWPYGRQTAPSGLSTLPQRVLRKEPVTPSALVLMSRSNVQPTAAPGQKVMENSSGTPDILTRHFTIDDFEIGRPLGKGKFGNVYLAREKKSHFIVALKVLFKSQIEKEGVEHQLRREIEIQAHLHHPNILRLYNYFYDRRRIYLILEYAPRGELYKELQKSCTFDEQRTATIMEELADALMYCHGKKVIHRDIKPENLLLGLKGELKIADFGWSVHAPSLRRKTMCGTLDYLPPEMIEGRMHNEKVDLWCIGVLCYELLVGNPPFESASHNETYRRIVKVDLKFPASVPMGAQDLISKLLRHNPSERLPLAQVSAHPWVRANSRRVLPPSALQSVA
# [13] = target: Serine/threonine-protein kinase Chk1 (Homo sapiens, UniProt O14757); experiment: Inhibition of CHK1
# [14] = Oral bioavailability in cynomolgus monkey at 30 mg/kg; type: ADME, organism-based, Macaca fascicularis; conditions: in vivo
# [15] = AUC (0 to 24 hrs) in Sprague-Dawley rat at 30 mg/kg, po; type: ADME, organism-based; parameters: time < 24 hr, dose 30 mg/kg, route oral; conditions: plasma
# [16] = Clearance in Sprague-Dawley rat at 10 mg/kg, iv; type: ADME, organism-based; parameters: dose 10 mg/kg, route intravenous; conditions: in vivo
# [17] = AUC (0 to 24 hrs) in Sprague-Dawley rat at 10 mg/kg, iv; type: ADME, organism-based; parameters: time < 24 hr, dose 10 mg/kg, route intravenous; conditions: plasma
# [18] = AUC (0 to 24 hrs) in CD1 mouse at 50 mg/kg, po; type: ADME, organism-based; parameters: time < 24 hr, dose 50 mg/kg, route oral; conditions: plasma
# [19] = Plasma clearance in rat; type: ADME, organism-based
# [20] = AUC (0 to 6 hrs) in rat at 10 mg/kg, po; type: ADME, organism-based; parameters: time < 6 hr, dose 10 mg/kg, route oral; conditions: plasma
# [21] = Oral bioavailability in CD1 mouse at 50 mg/kg; type: ADME, organism-based; conditions: in vivo
IC50 [1] [nM],IC50 [2] [nM],IC50 [3] [nM],IC50 [4] [nM],IC50 [5] [nM],IC50 [6] [nM],IC50 [7] [nM],IC50 [8] [nM],IC50 [9] [nM],IC50 [10] [nM],IC50 [11] [nM],IC50 [12] [nM],IC50 (Aurora kinase B) [nM],IC50 [13] [nM],bioavailability [14] [%],AUC(0-t) at 24 h [15] [µM·h],clearance [16] [mL/min/kg],AUC(0-t) at 24 h [17] [µM·h],AUC(0-t) at 24 h [18] [µM·h],clearance [19] [mL/min/kg],Compound,other results
> 100,> 100,> 100,> 100,> 100,> 100,> 100,> 100,> 100,> 100,< 1,5,25,–,–,–,–,–,–,–,CCN(Cc1cc(Nc2nc(C)cn3c(-c4cn[nH]c4)cnc23)sn1)C(C)(C)CO,–
> 100,> 100,> 100,> 100,> 100,> 100,> 100,> 100,> 100,> 100,550,76,91,640,2,6.9,33,12.2,9.4,33,Cc1cn2c(-c3cn[nH]c3)cnc2c(Nc2cc(CN3CCC(F)(F)C3)ns2)n1.Cl,AUC(0-t) at 6 h [20]: 1.61 µM·h; bioavailability [21]: 60%
> 100,> 100,> 100,> 100,> 100,> 100,> 100,> 100,> 100,> 100,340,46,63,200,2,62.1,6.3,63.3,35.9,6.3,Cl.[2H]C([2H])(c1cc(Nc2nc(C)cn3c(-c4cn[nH]c4)cnc23)sn1)N1CCC(F)(F)C1,AUC(0-t) at 6 h [20]: 4.73 µM·h; bioavailability [21]: 37%
